In PMC3265452 (PLoS Neglected Tropical Diseases, 2012):
Counter-ions that a name gives are not always drawn.

What follows are compounds tested against AaDOP2 (Aedes aegypti, UniProt H6D5H2) (assay: AaDOP2 antagonist screen of the LOPAC1280 library (HEK-CRELuc-Aadop2 cells, luminescence)). Conditions: not given.
AaDOP2, sequence (H6D5H2 1-476): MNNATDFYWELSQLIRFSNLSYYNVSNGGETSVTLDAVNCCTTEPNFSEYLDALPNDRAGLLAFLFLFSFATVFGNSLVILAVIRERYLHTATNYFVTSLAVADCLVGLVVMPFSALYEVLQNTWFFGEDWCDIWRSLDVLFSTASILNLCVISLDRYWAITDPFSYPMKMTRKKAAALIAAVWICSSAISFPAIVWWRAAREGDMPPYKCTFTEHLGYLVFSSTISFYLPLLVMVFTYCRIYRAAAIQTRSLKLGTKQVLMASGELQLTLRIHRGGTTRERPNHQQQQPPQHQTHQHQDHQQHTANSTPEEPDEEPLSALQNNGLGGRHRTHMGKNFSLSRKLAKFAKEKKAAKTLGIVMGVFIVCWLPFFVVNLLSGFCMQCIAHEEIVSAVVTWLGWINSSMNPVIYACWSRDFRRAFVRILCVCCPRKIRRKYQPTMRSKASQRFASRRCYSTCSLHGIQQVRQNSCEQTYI
Format: cell-based
With `Nc1ncnc2c1ncn2[C@@H]1O[C@H](CO)[C@@H](O)[C@H]1O` [Compound 101, Adenosine] the “Compound effect (percent receptor signaling in presence of test compound, relative lux units relative to the SCH23390 control)” value was 96.
For `N[C@@H](CC(=O)O)C(=O)O` [Compound 102, L-Aspartic acid], the “Compound effect (percent receptor signaling in presence of test compound, relative lux units relative to the SCH23390 control)” value was 106.
With `CC1=C(/C=C/C(C)=C/C=C/C(C)=C/C=C/C=C(C)/C=C/C=C(C)/C=C/C2=C(C)C(=O)[C@@H](O)CC2(C)C)C(C)(C)C[C@H](O)C1=O` [Compound 103, Astaxanthin] the “Compound effect (percent receptor signaling in presence of test compound, relative lux units relative to the SCH23390 control)” value was 106.
In the case of `Nc1ccc(N2C(=O)c3ccccc3C2=O)c(Cl)c1` [Compound 104, N-(4-Amino-2-chlorophenyl)phthalimide], the “Compound effect (percent receptor signaling in presence of test compound, relative lux units relative to the SCH23390 control)” value is reported as 99.
In the case of `C[C@]12CCC(=O)C=C1CC[C@@H]1[C@@H]2CC[C@]2(C)C(=O)CC[C@@H]12` [Compound 108, 4-Androstene-3,17-dione], the “Compound effect (percent receptor signaling in presence of test compound, relative lux units relative to the SCH23390 control)” value is reported as 115.
For `COc1cc(NS(C)(=O)=O)ccc1Nc1c2ccccc2nc2ccccc12` [Compound 112, Amsacrine hydrochloride], the “Compound effect (percent receptor signaling in presence of test compound, relative lux units relative to the SCH23390 control)” value was 97.
In the case of `CN(Cc1cnc2nc(N)nc(N)c2n1)c1ccc(C(=O)N[C@@H](CCC(=O)O)C(=O)O)cc1` [Compound 114, (-)Amethopterin], the “Compound effect (percent receptor signaling in presence of test compound, relative lux units relative to the SCH23390 control)” value is reported as 116.
For `COc1ccc(C(=O)N2CCCC2=O)cc1` [Compound 116, Aniracetam], the “Compound effect (percent receptor signaling in presence of test compound, relative lux units relative to the SCH23390 control)” value was 101.
In the case of `CCn1c(=O)c2[nH]c(-c3ccccc3)nc2n(CC)c1=O` [Compound 117, 1,3-Diethyl-8-phenylxanthine], the “Compound effect (percent receptor signaling in presence of test compound, relative lux units relative to the SCH23390 control)” value is reported as 105.
With `Cn1c(=O)c2[nH]c(-c3ccc(S(=O)(=O)O)cc3)nc2n(C)c1=O` [Compound 118, 8-(p-Sulfophenyl)theophylline] the “Compound effect (percent receptor signaling in presence of test compound, relative lux units relative to the SCH23390 control)” value was 98.
`CCCn1c(=O)c2[nH]c(-c3ccc(S(=O)(=O)O)cc3)nc2n(CCC)c1=O` [Compound 119, 1,3-Dipropyl-8-p-sulfophenylxanthine] was tested, and the “Compound effect (percent receptor signaling in presence of test compound, relative lux units relative to the SCH23390 control)” value was 91.
With `NCCNC(=O)Cc1ccc(NC(=O)Cc2ccc(Nc3ncnc4c3ncn4[C@@H]3O[C@H](CO)[C@@H](O)[C@H]3O)cc2)cc1` [Compound 122, Adenosine amine congener] the “Compound effect (percent receptor signaling in presence of test compound, relative lux units relative to the SCH23390 control)” value was 105.
In the case of `CN1[C@@H]2CC[C@H]1C[C@@H](OC(c1ccccc1)c1ccccc1N)C2` (some centres unmarked) [Compound 125, Aminobenztropine], the “Compound effect (percent receptor signaling in presence of test compound, relative lux units relative to the SCH23390 control)” value is reported as 30.
`C#CCOC(=O)C1=CCCN(C)C1` [Compound 126, Arecaidine propargyl ester hydrobromide] was tested, and the “Compound effect (percent receptor signaling in presence of test compound, relative lux units relative to the SCH23390 control)” value was 85.
In the case of `C=CCn1c(=O)c2c(nc(-c3ccc(S(=O)(=O)O)cc3)n2C)n(C)c1=O` [Compound 129, 1-Allyl-3,7-dimethyl-8-p-sulfophenylxanthine], the “Compound effect (percent receptor signaling in presence of test compound, relative lux units relative to the SCH23390 control)” value is reported as 100.
In the case of `Cl.NC1(C(=O)O)CCCCC1` [Compound 132, 1-Amino-1-cyclohexanecarboxylic acid hydrochloride], the “Compound effect (percent receptor signaling in presence of test compound, relative lux units relative to the SCH23390 control)” value is reported as 110.
In the case of `CC(N)C(=O)OC(C)(C)Cc1ccc(Cl)cc1` (centres unmarked) [Compound 133, Alaproclate hydrochloride], the “Compound effect (percent receptor signaling in presence of test compound, relative lux units relative to the SCH23390 control)” value is reported as 110.
`CCN(CC)CC.Nc1ncnc2c1ncn2C1OC2COP(O)(=S)O[C@@H]2[C@@H]1O` (some centres unmarked) [Compound 134, Rp-cAMPS triethylamine] was tested, and the “Compound effect (percent receptor signaling in presence of test compound, relative lux units relative to the SCH23390 control)” value was 67.
In the case of `N[C@H](CCCCCP(=O)(O)O)C(=O)O` [Compound 136, D(-)-2-Amino-7-phosphonoheptanoic acid], the “Compound effect (percent receptor signaling in presence of test compound, relative lux units relative to the SCH23390 control)” value is reported as 102.
For `CC(=O)c1ccc(S(=O)(=O)NC(=O)NC2CCCCC2)cc1` [Compound 137, Acetohexamide], the “Compound effect (percent receptor signaling in presence of test compound, relative lux units relative to the SCH23390 control)” value was 115.
In the case of `CP(=O)(O)CCCN.Cl` [Compound 138, SKF 97541 hydrochloride], the “Compound effect (percent receptor signaling in presence of test compound, relative lux units relative to the SCH23390 control)” value is reported as 101.
For `NC/C=C\C(=O)O` [Compound 139, cis-4-Aminocrotonic acid], the “Compound effect (percent receptor signaling in presence of test compound, relative lux units relative to the SCH23390 control)” value was 95.
For `Nc1ccc(CCNc2ncnc3c2ncn3[C@@H]2O[C@H](CO)[C@@H](O)[C@H]2O)cc1` [Compound 140, N6-2-(4-Aminophenyl)ethyladenosine], the “Compound effect (percent receptor signaling in presence of test compound, relative lux units relative to the SCH23390 control)” value was 97.
With `CC1=C[C@@H]2c3cccc4[nH]cc(c34)C[C@H]2N(C)C1` [Compound 141, Agroclavine] the “Compound effect (percent receptor signaling in presence of test compound, relative lux units relative to the SCH23390 control)” value was 98.
`O=c1nc2[nH]c3ccccc3nc-2c(=O)[nH]1` [Compound 144, Alloxazine] was tested, and the “Compound effect (percent receptor signaling in presence of test compound, relative lux units relative to the SCH23390 control)” value was 104.
For `O=C(O)[C@@H]1C[C@H](C(=O)O)N1` [Compound 145, cis-Azetidine-2,4-dicarboxylic acid], the “Compound effect (percent receptor signaling in presence of test compound, relative lux units relative to the SCH23390 control)” value was 112.
In the case of `NC1(C(=O)O)CCc2cc(C(=O)O)ccc21` (centres unmarked) [Compound 148, AIDA], the “Compound effect (percent receptor signaling in presence of test compound, relative lux units relative to the SCH23390 control)” value is reported as 95.
In the case of `CC(C)(C)c1o[nH]c(=O)c1CC(N)C(=O)O` (centres unmarked) [Compound 150, ATPA], the “Compound effect (percent receptor signaling in presence of test compound, relative lux units relative to the SCH23390 control)” value is reported as 101.
In the case of `CC(=O)C(C)=NO` [Compound 153, 2,3-Butanedione monoxime], the “Compound effect (percent receptor signaling in presence of test compound, relative lux units relative to the SCH23390 control)” value is reported as 131.
For `CC[C@H](NC(=O)c1c(C)c(-c2ccccc2)nc2ccccc12)c1ccccc1` [Compound 154, SB 222200], the “Compound effect (percent receptor signaling in presence of test compound, relative lux units relative to the SCH23390 control)” value was 92.
With `COc1ccc2c(c1)c(CC(=O)O)c(C)n2C(=O)c1ccccc1` [Compound 155, 1-benzoyl-5-methoxy-2-methylindole-3-acetic acid] the “Compound effect (percent receptor signaling in presence of test compound, relative lux units relative to the SCH23390 control)” value was 105.
In the case of `O=C1C=CC(=O)C=C1` [Compound 156, p-Benzoquinone], the “Compound effect (percent receptor signaling in presence of test compound, relative lux units relative to the SCH23390 control)” value is reported as 96.
For `O=S(=O)(NCCNC/C=C/c1ccc(Br)cc1)c1cccc2cnccc12` [Compound 158, H-89], the “Compound effect (percent receptor signaling in presence of test compound, relative lux units relative to the SCH23390 control)” value was 46.
With `O=C1O/C(=C/Br)CCC1c1cccc2ccccc12` (centres unmarked) [Compound 159, Bromoenol lactone] the “Compound effect (percent receptor signaling in presence of test compound, relative lux units relative to the SCH23390 control)” value was 103.
In the case of `NC(=O)c1ccccc1` [Compound 160, Benzamide], the “Compound effect (percent receptor signaling in presence of test compound, relative lux units relative to the SCH23390 control)” value is reported as 100.
`O=[N+]([O-])c1cccc2c(Br)n[nH]c12` [Compound 161, 3-Bromo-7-nitroindazole] was tested, and the “Compound effect (percent receptor signaling in presence of test compound, relative lux units relative to the SCH23390 control)” value was 83.
In the case of `CC(C)C[C@H]1C(=O)N2CCC[C@H]2[C@]2(O)O[C@](NC(=O)[C@@H]3C=C4c5cccc6[nH]c(Br)c(c56)C[C@H]4N(C)C3)(C(C)C)C(=O)N12.CS(=O)(=O)O` [Compound 162, (+)-Bromocriptine methanesulfonate], the “Compound effect (percent receptor signaling in presence of test compound, relative lux units relative to the SCH23390 control)” value is reported as 37.
With `Nc1nc(OCc2ccccc2)c2nc[nH]c2n1` [Compound 163, O6-benzylguanine] the “Compound effect (percent receptor signaling in presence of test compound, relative lux units relative to the SCH23390 control)” value was 80.

Same assay, conditions: 10 µM compound, 300 nM dopamine, 2 hr; hit = compound effect <20
For `NC(N)=NC(=O)c1nc(Cl)c(N2CCCCCC2)nc1N` [Compound 107, 5-(N,N-hexamethylene)amiloride], the “Compound effect (percent receptor signaling in presence of test compound, relative lux units relative to the SCH23390 control)” value was 82%.
With `Cl.c1ccc(CN(CC2=NCCN2)c2ccccc2)cc1` [Compound 115, Antozoline hydrochloride] the “Compound effect (percent receptor signaling in presence of test compound, relative lux units relative to the SCH23390 control)” value was 115%.
For `CNC(=O)[C@H]1O[C@@H](n2cnc3c(N)ncnc32)[C@H](O)[C@@H]1O` [Compound 121, 5'-N-Methyl carboxamidoadenosine], the “Compound effect (percent receptor signaling in presence of test compound, relative lux units relative to the SCH23390 control)” value was 114%.
For `Cl.Cn1ccc2cc(NC(=O)Nc3cccnc3)ccc21` [Compound 135, SB 200646 hydrochloride], the “Compound effect (percent receptor signaling in presence of test compound, relative lux units relative to the SCH23390 control)” value was 106%.
In the case of `C#CC(N)CCC(=O)O` (centres unmarked) [Compound 142, gamma-Acetylinic GABA], the “Compound effect (percent receptor signaling in presence of test compound, relative lux units relative to the SCH23390 control)” value is reported as 104%.
For `CNC(=O)[C@H]1O[C@@H](n2cnc3c(NCc4ccc(N)cc4)ncnc32)[C@H](O)[C@@H]1O` [Compound 143, AB-MECA], the “Compound effect (percent receptor signaling in presence of test compound, relative lux units relative to the SCH23390 control)” value was 100%.
`CC(C)C1C2CCC(C2)C1N.Cl` (centres unmarked) [Compound 147, AGN 192403 hydrochloride] was tested, and the “Compound effect (percent receptor signaling in presence of test compound, relative lux units relative to the SCH23390 control)” value was 109%.
For `Cl.NC[C@@H]1O[C@H](C23CC4CC(CC(C4)C2)C3)Cc2c1ccc(O)c2O` [Compound 149, A-77636 hydrochloride], the “Compound effect (percent receptor signaling in presence of test compound, relative lux units relative to the SCH23390 control)” value was 113%.
In the case of `CCN(CC)c1ncnc2c1ncn2[C@@H]1O[C@H](COP(=O)([O-])OP(=O)([O-])C(Br)(Br)P(=O)([O-])O)[C@@H](O)[C@H]1O.[Na+].[Na+].[Na+]` [Compound 151, ARL 67156 trisodium salt], the “Compound effect (percent receptor signaling in presence of test compound, relative lux units relative to the SCH23390 control)” value is reported as 115%.
With `C[C@H]1C[C@H]2[C@@H]3CCC4=CC(=O)C=C[C@]4(C)[C@@]3(Cl)[C@@H](O)C[C@]2(C)[C@@]1(O)C(=O)CO` [Compound 152, Beclomethasone] the “Compound effect (percent receptor signaling in presence of test compound, relative lux units relative to the SCH23390 control)” value was 97%.
For `Nc1nc2c(nc(Br)n2[C@@H]2O[C@@H]3COP(=O)([O-])O[C@H]3[C@H]2O)c(=O)[nH]1.[Na+]` [Compound 157, 8-Bromo-cGMP sodium], the “Compound effect (percent receptor signaling in presence of test compound, relative lux units relative to the SCH23390 control)” value was 117%.
`CC(=O)NBr` [Compound 164, N-Bromoacetamide] was tested, and the “Compound effect (percent receptor signaling in presence of test compound, relative lux units relative to the SCH23390 control)” value was 104%.
